Laboratory results as given in patent US20230255906A1, “Targeting Serpin B9 in Cancer” (The Brigham and Women`s Hospital, Inc., priority 2020, published 2023).

Columns and labels:
MBP-Sb9 = target: T1, MBP-Sb9 (Homo sapiens, UniProt P50453); test: Saturation-Transfer Difference (STD) NMR assay; assay type: binding; conditions: 420 μM compound, 45 μM Sb9 protein, PBS pH 7.0, 25° C.
T1 construct: made in house
T1 sequence (P50453 2-376): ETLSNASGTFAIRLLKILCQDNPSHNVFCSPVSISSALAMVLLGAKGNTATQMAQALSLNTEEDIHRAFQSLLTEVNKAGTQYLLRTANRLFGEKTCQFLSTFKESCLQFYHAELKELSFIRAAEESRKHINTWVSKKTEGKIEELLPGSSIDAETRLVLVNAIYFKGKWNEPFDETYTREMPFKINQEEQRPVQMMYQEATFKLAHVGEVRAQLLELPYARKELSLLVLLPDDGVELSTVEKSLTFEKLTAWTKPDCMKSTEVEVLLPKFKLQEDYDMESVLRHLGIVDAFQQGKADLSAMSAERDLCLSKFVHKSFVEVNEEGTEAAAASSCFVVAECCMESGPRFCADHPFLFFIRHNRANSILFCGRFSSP
Excerpt: The Saturation-Transfer Difference (STD) NMR assay was used to evaluate the binding of the compound of Formula (III) to Sb9. […] The saturation period was 3.0 seconds with irradiation at 0 ppm (on-resonance excitation) and −20 ppm (off-resonance excitation). The number of scans was 160 for the on and off-resonance spectra, respectively. Spectra were processed using Topspin software and apodized with exponential multiplication with 1.0 Hz line-broadening.
The Saturation-Transfer Difference (STD) NMR assay was used to evaluate the binding of the compounds of Formulas (I) and (II) to Sb9. […] The saturation period was 3.0 seconds with irradiation at 0.7 ppm (on-resonance excitation) and 20 ppm (off-resonance excitation). The number of scans was 800. The spectra were processed using Topspin software with 1.0 Hz line-broadening.
The Saturation-Transfer Difference (STD) NMR assay as described herein was used to evaluate the binding of the compound of Formula (III) to Sb9.

4T1 breast tumors = test: 4T1 breast tumor model in BALB/c mice; assay type: in vivo, mouse; conditions: i.p. twice a day 14 days
Protocol: (§1) Mice were anesthetized with isoflurane, and tumor cell lines (B16, A375, and 4T1) were gently injected subcutaneously in the flanks or mammary glands of mice. One hundred thousand cells (1×10^5 cells) were injected per mouse for most of the experiments. However, twenty-five thousand cells (25×10^3 cells) were injected per mouse for the experiments using the compound of Formula (III). Upon 4 hrs post-implantation, 300 μg of the compound of Formula (III) was administered twice a day intraperitoneally for 14 days. Tumor growth was monitored three times per week by digital caliper (Fisherbrand™ Traceable™ Digital Calipers).
Sb9 is highly expressed in human primary breast tumor cells (FIG. 6D) and in the stromal cells within the TME (FIGS. 6D-6E). Whether the compound of Formula (III) could be used to treat mice implanted with 4T1 breast tumor cells was therefore determined. […] Treatment with the compound of Formula (III) increased the median survival time (MST) of mice bearing 4T1 breast tumors and receiving treatment with the compound of Formula (III) as compared to mice bearing 4T1 breast tumors and not receiving treatment (MST=28 days vs MST=22 days, respectively) (FIG. 6G).
For mouse Breast Cancer model, 1×10^5 4T1 cells were subcutaneously implanted into the fourth mammary pad of BABL/c mice, and mice were separated randomly into three groups: Control, compound of Formula (I), and compound of Formula (II). In the compound of Formula (I) group, mice were treated with the compound of Formula (I) for 14 days consecutively ([…], i.p, twice a day). In the compound of Formula (II) group, mice were administrated the compound of Formula (II) 14 days consecutively (300 μg/mouse, i.p, twice a day). Tumor sizes were measured every 3 days from day 5 post-tumor implantation and calculated with formula length×width^2/2.

cancer cells = test: Caspase-3 immunofluorescence in cancer cells; assay type: cell-based; conditions: 200 μM, 48 hrs
Protocol: 1×10^4 cancer cells were seeded in an 8-well chamber and treated with 200 μM of the compounds of Formulas (I) and (II) for 48 hrs. Controls were the equal amount of DMSO. Cells were stained with anti-caspase3. DAPI was used to counterstain the cell nuclei. The stained tissue sections were visualized using an EVOS™ FL Auto 2 Imaging System.

[1] = system: B16-WT mouse melanoma tumors; test: B16 melanoma tumor model in C57BL/6 mice; assay type: in vivo
Protocol: as §1
The anti-tumor activity of the compound of Formula (III) in vivo was assessed. […] Treatment with the compound of Formula (III) increased the median survival time (MST) of mice bearing B 16-WT mouse melanoma tumors and receiving treatment with the compound of Formula (III) as compared to mice bearing B16-WT melanoma tumors and not receiving treatment (MST=39 days vs MST=26 days, respectively) (FIG. 51B). Next, the effect of the compound of Formula (III) on tumor immunity was examined.
The efficacy of the compound of Formula (III) was assessed in C57BL/6J mice (FIG. 18). B16 mouse melanoma cells were implanted subcutaneously into the right flanks of C57BL/6J mice, and the mice were randomized into three groups: (1) no treatment (control), (2) treatment with anti-PD1, and (3) treatment with Formula (III). The mice in the anti-PD1 group received 200 μg of anti-PD1 iv every 3 days, and those in the Formula (III) group received 300 μg of Formula (III) twice a day consecutively for 14 days.
A survival study using the compound of Formula (IV) in mice harboring B16 melanoma was performed. Mice implanted with B16 tumors were treated with the compound of Formula (IV) (n=8) and compared to a control group having B16 tumors and not receiving treatment with the compound of Formula (IV) (n=8).

B16 melanoma cells = test: Caspase-3 activity assay (EnzChek Caspase-3 Assay Kit), caspase-3 induction in tumor cells; assay type: cell-based, mouse; conditions: for Caspase-3 induction, Normalized to Formula (III) (%): relative to compound of Formula (III)
Method in brief: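 B16 melanoma cells exposed to compounds for 24 h, lysed on ice 30 min, and lysate incubated with Z-DEVD-R110 substrate about 30 min at room temperature. Fluorescence read at ~496/520 nm against untreated-cell and no-enzyme controls; caspase-3 induction serves as surrogate for GrB activity from Sb9 inhibition.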

Compound | Ratio of caspase-3 activity to Formula (III) (B16 melanoma cells) | Caspase-3 induction, Normalized to Formula (III) (%) (B16 melanoma cells) | also measured
COC(=O)c1cc(N)c(O)cc1NC(=O)c1ccccc1 [Formula (II), methyl 5-amino-2-benzamido-4-hydroxybenzoate] | – | – | binding to MBP-Sb9 by STD NMR (MBP-Sb9): confirmed the binding activities; tumor size vs Control group (4T1 breast tumors; Day 14 post-tumor implantation): significantly decreased; caspase-3 expression compared to DMSO (cancer cells): significantly increased caspase-3 expression; increase of caspase-3 expression, comparison between compounds (cancer cells): higher than the group treated with the compound of Formula (I)
COC(=O)c1cc(N)c(O)cc1NC(=O)OC(C)(C)C [Formula (I), methyl 5-amino-2-((tert-butoxycarbonyl)amino)-4-hydroxybenzoate] | – | – | binding to MBP-Sb9 by STD NMR (MBP-Sb9): confirmed the binding activities; tumor size vs Control group (4T1 breast tumors; Day 11 post-tumor implantation): significantly decreased; tumor size vs Control group (4T1 breast tumors; Day 14 post-tumor implantation): significantly decreased; caspase-3 expression compared to DMSO (cancer cells): significantly increased caspase-3 expression
NC(=O)c1ccc(O)c(O)c1 [Formula (IV), 3,4-dihydroxybenzamide] | – | – | binding to MBP-Sb9 by STD NMR (MBP-Sb9): clearly show inter-molecular interaction of all aromatic peaks; tumor size vs Control group ([1]; Day 22 post-tumor implantation (FIG. 17A)): decreased; melanoma progression in vivo ([1]; mice bearing B16 tumors, n=8 (FIG. 17A)): suppressed melanoma progression; median survival time (MST) ([1]; mice bearing B16 tumors, n=8 (FIG. 17B)): 34 days
O=C(c1ccc2oc(-c3ccc(C(F)(F)F)cc3)nc2c1)N1CCC[C@H]1CO [[(2S)-1-({2-[4-(trifluoromethyl)phenyl]-1,3-benzoxazol-5-yl}carbonyl)-2-pyrrolidinyl]methanol] | 0.1353 | – | –
CCN(C)C(=O)c1ccc2nc(C(F)(F)C(F)(F)F)oc2c1 [N-ethyl-N-methyl-2-(1,1,2,2,2-pentafluoroethyl)-1,3-benzoxazole-6-carboxamide] | – | −28.449 | –
CCOc1ccc(C(=O)N(C)CC)cc1O [4-ethoxy-N-ethyl-3-hydroxy-N-methylbenzamide] | – | −69.889 | –
O=C(NCc1ccccc1)c1ccc2nc(C3CCCO3)oc2c1 (stereo not drawn) [N-benzyl-2-(oxolan-2-yl)-1,3-benzoxazole-6-carboxamide] | – | −34.6335 | –
CCN(C)C(=O)c1cccc2oc(N(C)C)nc12 [2-(dimethylamino)-N-ethyl-N-methyl-1,3-benzoxazole-4-carboxamide] | – | −25.6782 | –
O=C(N[C@H]1CCCCNC1=O)c1ccc2oc(-c3cccc(F)c3)nc2c1 [2-(3-fluorophenyl)-N-[(3S)-2-oxo-3-azepanyl]-1,3-benzoxazole-5-carboxamide] | 0.771 | – | –
COC(=O)CCCNC(=O)c1ccc2nc(-c3cccc(OC)c3)oc2c1 [methyl 4-({[2-(3-methoxyphenyl)-1,3-benzoxazol-6-yl]carbonyl}amino)butanoate] | 0.3858 | – | –
CCN(C)C(=O)c1ccc2oc(=O)[nH]c2c1 [N-ethyl-N-methyl-2-oxo-2,3-dihydro-1,3-benzoxazole-5-carboxamide] | – | −21.7056 | –
Cc1nc(CNC(=O)c2ccc3oc(-c4cccc(F)c4)nc3c2)cs1 [2-(3-fluorophenyl)-N-[(2-methyl-1,3-thiazol-4-yl)methyl]-1,3-benzoxazole-5-carboxamide] | 0.09788 | – | –
COc1cccc(-c2nc3ccc(C(=O)NCc4nnn[nH]4)cc3o2)c1 [2-(3-methoxyphenyl)-N-(1H-tetrazol-5-ylmethyl)-1,3-benzoxazole-6-carboxamide] | 0.3911 | – | –
O=C(NC1CCCC1)c1ccc2nc(C3CC3)oc2c1 [N-cyclopentyl-2-cyclopropyl-1,3-benzoxazole-6-carboxamide] | – | −21.5068 | –
CN(C)CCNC(=O)c1cc2c(cc1O)OCO2 [N-[2-(dimethylamino)ethyl]-6-hydroxy-2H-1,3-benzodioxole-5-carboxamide] | – | 2.3274 | –
